Results: ChEMBL document CHEMBL1201862, “PubChem BioAssay data set” (2004)
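Compound exposure: 48 hours, 5 concentrations, 96-well plates. At the GI50, growth is halved.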 Active and inactive are the calls of the source. Rule as the data show it: active = GI50 up to about 1.1 µM and inactive = higher.

Experiments:
Assay in all cases: NCI-60 cell line screen, 48 h
[1] = test system: IGROV-1
[2] = test system: A498
[3] = test system: HT-29
[4] = test system: HCT-116
[5] = test system: OVCAR-5
[6] = test system: HL-60
[7] = test system: M14
[8] = test system: U-251
[9] = test system: Malme-3M
[10] = test system: CAKI-1
[11] = test system: SK-OV-3
[12] = test system: COLO 205
[13] = test system: HOP-62
[14] = test system: 786-0
[15] = test system: RXF 393
[16] = test system: LOX IMVI

Measured: GI50

O=c1c2ccccc2nc(-c2ccccc2Cl)n1NC1OC(CO)C(O)C(O)C1O (stereo unspecified)
inactive: [1] > 100 µM | [2] > 100 µM | [3] > 100 µM | [4] > 100 µM | [5] > 100 µM | [6] > 100 µM | [7] > 100 µM | [8] > 100 µM | [9] > 100 µM | [10] > 100 µM | [11] > 100 µM | [12] > 100 µM | [13] > 100 µM | [14] > 100 µM

CSc1nnc(COc2ccc(Cl)cc2)o1
inactive: [1] > 100 µM | [2] > 100 µM | [3] > 100 µM | [4] > 100 µM | [5] > 100 µM | [7] > 100 µM | [8] > 100 µM | [9] > 100 µM | [15] > 100 µM | [10] > 100 µM | [11] > 100 µM | [12] > 100 µM | [16] > 100 µM | [13] > 100 µM | [14] > 100 µM

CCCCCCCCCCCCCCCC(=O)NCC(COP(=O)([O-])OCC[N+](C)(C)C)OCC (stereo unspecified)
inactive: [1] 4.54 µM | [2] > 10 µM | [3] 5.22 µM | [4] 11.2 µM | [5] 10 µM | [7] 11.5 µM | [8] 4.16 µM | [9] 16.9 µM | [15] 2.1 µM | [10] 19.7 µM | [11] 18 µM | [12] 2.31 µM | [16] 16.3 µM | [13] 7.35 µM | [14] 2.54 µM

O=C1C(=Cc2ccc(F)cc2)C(=O)c2ccccc21
inactive: [1] > 100 µM | [2] > 100 µM | [3] > 100 µM | [4] > 100 µM | [5] > 100 µM | [6] 30.5 µM | [7] > 100 µM | [8] > 100 µM | [9] > 100 µM | [10] > 100 µM | [11] > 100 µM | [12] > 100 µM | [13] > 100 µM | [14] > 100 µM

CCC12C=CCN(CCc3c([nH]c4ccccc34)/C=C\1)C2 (stereo unspecified)
inactive: [1] > 100 µM | [2] > 100 µM | [3] > 100 µM | [4] > 100 µM | [6] > 100 µM | [7] > 100 µM | [8] > 100 µM | [9] > 100 µM | [10] > 100 µM | [12] > 100 µM | [16] > 100 µM | [13] > 100 µM | [14] > 100 µM
